Assay results: patent KR20100075412A, “방사성 세포 표지자” (경북대학교 산학협력단, priority 2008, dated 2010)
Like-named read-outs stand apart in the source and are kept apart here.

Key:
[1] = MicroPET imaging after tail vein injection of [124I]HIB; format: in vivo; conditions: mouse
labelled cells [표지한 세포] = assay: MicroPET imaging after tail vein injection of [124I]HIB-labelled cells; format: in vivo; conditions: mouse, imaged for 2 h after injection, for 2 h at 18 h, and up to 66 h (about 3 days)
4T1 cells = assay: Cell labelling with [131I]OIB / [131I]HIB, 4T1 cells; format: cell-based; conditions: 4T1, in PBS, centrifuged and washed several times
HeLa cells = assay: Cell labelling with [131I]OIB / [131I]HIB, HeLa cells; format: cell-based; conditions: in PBS, centrifuged and washed several times
H9C2 cells = assay: Cell labelling with [131I]OIB / [131I]HIB, H9C2 cells; format: cell-based; conditions: H9C2, in PBS, centrifuged and washed several times
[2] = test system: cells with introduced L6-NIS/GFP reporter [L6-NIS/GFP 리포터가 이입된 세포]; assay: Gamma camera and GFP imaging of labelled L6-NIS/GFP cells injected subcutaneously in nude mice; format: in vivo, nude mouse
L6 cells = assay: Cell labelling with [131I]OIB / [131I]HIB, L6 cells; format: cell-based, rat; conditions: for cell labelling yield: L6, in PBS, centrifuged and washed several times
[3] = test system: rat cardiomyocytes L6 [랫트(rat) 심근세포 L6]; assay: Gamma camera imaging of labelled L6 cells transplanted into rat myocardium; format: in vivo; conditions: L6 labelled for 2 h, transplanted directly into rat myocardium
SCC-7 cells = assay: Cell labelling with [131I]OIB / [131I]HIB, SCC-7 cells; format: cell-based; conditions: SCC-7, in PBS, centrifuged and washed several times
cells [세포] = conditions: cited from earlier work

With CCCCCCCCCCCCCCCCOC(=O)c1ccc([124I])cc1 [[124I]HIB] the “accumulation in thyroid and bladder (microPET)” value [1] was “갑상선과 방광 부위에 [124I]HIB가 축적되는 것을 확인”, the “accumulation of activity in liver (microPET)” value [1] was “간 위치에 활성도가 축적” and the excretion route ([1]; inferred from liver activity) was “간을 통하여 배출되는 것으로 여겨진다”. For the same molecule, the “time up to which labelled cells were seen accumulated in lung (microPET)” value (labelled cells [표지한 세포]) was 66 h.
Molecule CCCCCCCC/C=C\CCCCCCCCOC(=O)c1ccc([131I])cc1 [[131I]OIB] has a cell labelling yield (4T1 cells) of at least 20%, a cell labelling yield (HeLa cells) of at least 20% and a cell labelling yield (H9C2 cells) of at least 20%. For the same molecule, the “time up to which GFP imaging was measurable” value ([2]; 1x10^7 [131I]OIB-labelled cells s.c. in each thigh and shoulder of nude mouse) was 14 days, the “time up to which labelled cells were visible by gamma camera” value ([2]; 1x10^7 cells s.c. in each thigh and shoulder of nude mouse, gamma camera day 1 to 14) was 14 days and the cell labelling yield (L6 cells) was at least 20%. For the same molecule, the cell labelling efficiency (L6 cells; [131I]OIB 136 μCi, 4x10^5 L6 cells in serum-free medium, room temperature, 30 min, washed twice with PBS) was 26%, the “period over which transplanted labelled cells were imaged by gamma camera” value [3] was 2 weeks and the cell labelling yield (SCC-7 cells) was at least 20%.
For O=C(ON1C(=O)CCC1=O)c1ccc([18F])cc1 [[18F]FSB, N-succimidyl-4-[18F]fluorobenzoate], the “loss of label from cells” value (cells [세포]; according to previous results) is given as “알킬레이트된 부분이 신진 대사로 방출되면서 세포에서 표지자가 빠져나가는 것으로 여겨진다”.
In the case of CNC(=S)NN=CC(C)=NNC(=S)NC.[64Cu] [[64Cu]PTSM, [64Cu]pyruvaldehyde-bis-(n4-methyl-thiosemicarbazone)], the “release of label from cells” value (cells [세포]; after incubation with cells) is listed as “수 시간 후에 세포에서 떨어져 나와” and the “duration of cell labelling” value (cells [세포]; compared with other F-18/Cu-64 labelling) is listed as “좀 더 장기간 세포 표지가 가능하였다”.
CCCCCCCCCCCCCCCCOC(=O)c1ccc([131I])cc1 [[131I]HIB] gave a cell labelling yield (4T1 cells) of at least 20%, a cell labelling yield (HeLa cells) of at least 20% and a cell labelling yield (H9C2 cells) of at least 20%. For the same molecule, the cell labelling yield (L6 cells) was at least 20% and the cell labelling yield (SCC-7 cells) was at least 20%.
In the case of OC[C@H]1OC(O)[C@H]([18F])[C@@H](O)[C@@H]1O (stereo partly drawn) [[18F]FDG, 2-[18F]fluoro-2-deoxy-D-glucose], the “release of label from cells” value (cells [세포]) is given as “수 시간 후에 세포에서 떨어져 나와”.
